Laboratory results: patent US6365628B1 (Thia Medica AS, priority 1998, dated 2002)

Columns and labels:
Format in all cases: in vivo, rat
[1] = test system: male Wistar rats; test: Hepatic levels of triacylglycerol in rats fed fatty acid analogues (Example 17); conditions: TTA 150 mg/kg/day for 6 days, no prefeeding
Source text: Even an increased hepatic level of triacylglycerol may be relieved by TTA. Feeding rats with an inhibitor of fatty acid oxidation will increase the level of hepatic triacylglycerol resulting in fatty liver. Tetradecyl-4-thia propionic acid (TTP) is a fatty acid analogue with a sulphur atom in the 4 position. This analogue inhibits the β-oxidation of fatty acids due to the formation of a mitochondrial inhibitor. Feeding rats with this analogue results in the formation of fatty. However, if the rats are fed with a combination of TTA and TTP, the formation of fatty liver is avoided (Table 8). This provides evidence that TTA may be used for the treatment of conditions with an increased hepatic level of triacylglycerol. Male Wistar rats had free access to water and rat maintenance chow. They were fed palmitic acid or fatty acid analogues suspended in 0.5% CMC for 6 days. In some experiments TTA or TTP were fed for 3 days before feeding both for 6 days. At the end of the experiment the rats were fasted overnight, killed, the liver removed and homogenized. Triacylglycerol was measured in the homogenate.

[2] = test system: Wistar Charles River rats; test: Euglycemic hyperinsulinemic clamp, high fat diet induced insulin resistance (Example 12); conditions: HF diet supplemented with TTA, 21 days, 90 min clamp (FIG. 4)
Procedure: After 21 days on their respective diets (see above), the rats were anaesthetised by injection of xylazine hydrochloride (Rometar SPOFA, Prague, Czech Republic; 10 mg/ml) and ketamine hydrochloride (Narkamon SPOFA, Prague, Czech republic; 75 mg/ml), and fitted with chronic carotid artery and jugular vein cannulas as described by Koopmans et al. (Koopmans, S. J., et al., Biochim Biophys Acta, 1115, […] 1992.). The cannulated rats were allowed to recover for two days after surgery before the clamping studies which were carried out according to Kraegen et al. (Kraegen, E. W., et al., Am J Physiol, 248, E353-E362 1983.). Thus, on the third day after surgery, unrestrained conscious rats were given a continuous infusion of porcine insulin (Actrapid, Novo Nordisk, Denmark) at a dose of 6.4 mU per kg per min to achieve plasma insulin levels in the upper physiological range. The arterial blood glucose concentration was clamped at the basal fasting level, by variable infusion of a 30% w/v glucose solution (Leciva, Prague, Czech Republic). […]
Rats weighing 330±20 g were divided into 3 groups (n=9) and fed with three different diets: standard rat chow, high fat diet (HF) and HF supplemented with TTA. […] The glucose infusion rate (GIR) was determined from the period of the clamp where glycemia got stabilised, i.e. between 45-90 minutes after clamp commencement. […]

[3] = test system: obese Zucker fa/fa rats; test: Lipid lowering effect in obese Zucker fa/fa rats (Example 3); conditions: 300 mg/day/kg by gavage once daily for 10 days, control palmitic acid
Procedure: Glucose (GLU, Boehringer Mannheim, Germany), free fatty acids (NEFA, C ACS-ACOD kit; Wako Chemicals, Dalton, USA) and b-hydroxybutyrate (310-A kit; Sigma Diagnostics Inc., St. Louis, USA) concentrations were measured using enzymatic methods. Insulin concentrations were determined with radioimmunoassay by (CIS bio International, Gif sur Yvette, France) using rat insulin as standard in the Zucker rats. In the Wistar Charles River rats, plasma glucose concentrations were measured with the aid of Beckman Glucose Analyzer (Fullerton, Calif., USA). Plasma insulin levels were measured using a RIA kit from Linco Research Inc. (St. Charles, Mo., USA). Phospholipids were measured by the enzymatic method of bioMérieux, Marcy-l {grave over ( )}Etoile, France, Triacylglycerol by the Technicon Method no. SA4-0324L90, USA and Cholesterol by the Technicon Method no. SA4-0305L90, USA.
Male obese Zucker fa/fa rats, weighing 100 g at the start of the experiment, were housed in pairs in metal wire cages in a room maintained at 12 h light-dark cycles and a constant temperature of 20±3° C. The animals were acclimatised for at least one week under these conditions before the start of the experiment.
TTA (tetradecylthioacetic acid) prepared in accordance with procedure described previously, and palmitic acid (control), was suspended in 0.5% (w/v) carboxymethyl cellulose (CMC). Six animals were used in both groups. TTA (tetradecylthioacetic acid) and palmitic acid were administered at a dose of 300 mg/day/kg body weight, by gastric intubation (gavage) once daily for 10 days. The rats were fasted for 2 hours before termination of the experiment. Blood and organs were collected. Lipid concentrations in plasma were determined using an autoanalyzer, as described in the method section.

In the case of Tetradecylthioacetic acid [TTA], the “Hepatic triacylglycerol TG (μmol/g)” value [1] is reported as 7,7 ± 2,9 μmol/g, the “Glucose infusion rate (GIR) in euglycemic hyperinsulinemic clamp” value [2] is reported as “fully normal” and the “Decreased lipid level in plasma (% of control) Cholesterol” value [3] is reported as 73 % of control. For the same substance, the “Decreased lipid level in plasma (% of control) Phospholipids” value [3] was 71 % of control and the “Decreased lipid level in plasma (% of control) Triglycerides” value [3] was 72 % of control.
